The results in this text go back to patent US12521329B2, “Antimicrobial mixture containing 4-(3-ethoxy-4-hydroxyphenyl) butan-2-one, and cosmetic composition containing same” (L'OREAL, priority 2017, dated 2026).

Holding throughout (assay): MIC / synergy (FIC index) microplate growth test, optical density 620 nm
Holding throughout (format): cell-based

Test [1] concerns Candida albicans ATCC 10231. On the procedure:
The microbial strain Candida albicans ATCC 10231 and a double-concentration Sabouraud broth liquid culture medium were used.
(§1) A 96-well microplate at an incubation temperature of 32.5° C. is used.
(§2) The incubation time of the microplate for the abovementioned two strains is: • from 18 to 24 h aerobically for Candida albicans and Staphylococcus aureus. • from 24 hours to 48 hours aerobically for Aspergillus niger Tests
(§3) A 10% (weight/volume) stock solution was prepared by mixing 1 g of compound in 9 ml of aqueous 1‰ agar solution. Successive dilutions were made with the 1‰ agar solution.
(§4) 50 μl of each of the daughter solutions obtained containing compound A or B are added to the microplate wells. 100 μl of Sabouraud liquid nutrient broth inoculated at double concentration with the Candida albicans strain and 50 μl of aqueous 1‰ agar solution are also added thereto.
(§5) 50 μl of each of the daughter solutions obtained containing compound A and 50 μl of each of the daughter solutions obtained containing compound B are added to the microplate wells. 100 μl of Sabouraud liquid nutrient broth inoculated at double concentration with the Candida albicans strain are also added thereto.
(§6) A positive microbial growth control was also prepared. The positive microbial growth control corresponds to the mixture of 100 μl of aqueous 1‰ agar solution with 100 μl of Sabouraud liquid nutrient broth inoculated at double concentration with the Candida albicans strain in the absence of compounds A and B.
(§7) An absorbance control was performed in parallel on compounds A and B alone. This control corresponds to 100 μl of double concentration sterile Sabouraud liquid nutrient broth+100 μl of double concentration compound A or B.
(§8) In the three cases (absorbance control, growth control and test), the final volume present in each of the microplate wells is 200 μl.
(§9) In the two cases (test and control), the inoculum represents the concentration of the Candida albicans strain present in the final volume of the wells (200 μl) and is between 2 and 6×10^5 cfu/ml of Candida albicans.
(§10) The minimum inhibitory concentration (MIC) of each compound A and B alone and in combination was determined in a known manner by means of optical density measurements at a wavelength of 620 nm.

The subject of test [2] is Staphylococcus aureus ATCC 6538. The following applies: Example 1. As for the experimental part:
The microbial strain Staphylococcus aureus ATCC 6538 and a double-concentration nutrient broth liquid culture medium were used.
as §1, §2, §3, §4, §5, §6, §7, §8, §9, §10
The test as described above (tests, absorbance control and growth control) was performed again to test the combination A+B on the Staphylococcus aureus strain and on the Aspergillus niger strain as appropriate.

Test [3] concerns Aspergillus niger ATCC 6275. The following applies: Example 5. An excerpt: FIC Index=(MIC of A with B/MIC of A)+(MIC of B with A/MIC of B) with: • MIC of A with B: minimum concentration of product A in the combination A+B which makes it possible to obtain an inhibitory effect; • MIC of B with A: minimum concentration of product B in the combination A+B which makes it possible to obtain an inhibitory effect; • MIC of A: minimum inhibitory concentration of product A alone; • MIC of B: minimum inhibitory concentration of product B alone. […] A 96-well microplate at an incubation temperature of 32.5° C. is used. The incubation time of the microplate for the abovementioned two strains is: • from 18 to 24 h aerobically for Candida albicans and Staphylococcus aureus. • from 24 hours to 48 hours aerobically for Aspergillus niger Tests […] Successive dilutions were made with the 1‰ agar solution. 50 μl of each of the daughter solutions obtained containing compound A or B are added to the microplate wells. 100 μl of Sabouraud liquid nutrient broth inoculated at double concentration with the Candida albicans strain and 50 μl of aqueous 1‰ agar solution are also added thereto. 50 μl of each of the daughter solutions obtained containing compound A and 50 μl of each of the daughter solutions obtained containing compound B are added to the microplate wells. 100 μl of Sabouraud liquid nutrient broth inoculated at double concentration with the Candida albicans strain are also added thereto. A positive microbial growth control was also prepared. […] An absorbance control was performed in parallel on compounds A and B alone. This control corresponds to 100 μl of double concentration sterile Sabouraud liquid nutrient broth+100 μl of double concentration compound A or B. […] In the two cases (test and control), the inoculum represents the concentration of the Candida albicans strain present in the final volume of the wells (200 μl) and is between 2 and 6×10^5 cfu/ml of Candida albicans. […] The test as described above (tests, absorbance control and growth control) was performed again to test the combination A+B on the Staphylococcus aureus strain and on the Aspergillus niger strain as appropriate.

Molecules are shown by their SMILES.

In the case of `Cc1cc(CC(C)CC(C)(C)C)n(O)c(=O)c1.NCCO` (centres unmarked) [B2, piroctone olamine, reference compound], the microbial growth percentage was determined as 35% in test [1] (Example 2, 0.00125 weight % B2 alone) and 0% in test [1] (Example 2, 0.0025 weight % B2 alone).
For `N=C(N)c1ccc(OCCCCCCOc2ccc(C(=N)N)cc2)cc1` [B4, hexamidine diisethionate, reference compound], the “% MIC of B4 alone” value in test [1] (Example 4) came out at 0.005%. Also, the microbial growth percentage in test [1] (Example 4, 0.00125 weight % B4 alone) is on record as 78%; in test [1] (Example 4, 0.0025 weight % B4 alone), 59%; in test [1] (Example 4, 0.005 weight % B4 alone), 3%.
Regarding `CCOc1cc(CCC(C)=O)ccc1O` [A, 4-(3-ethoxy-4-hydroxyphenyl)butan-2-one], the microbial growth percentage in test [2] (0.0625 weight % A alone) is 87%; in test [2] (0.125 weight % A alone) it was 77%; in test [2] (0.25 weight % A alone), 78%; in test [2] (0.5 weight % A alone), 4%; in test [3] (0.0625 weight % A alone), 85%; in test [3] (0.125 weight % A alone), 43%. The microbial growth percentage is listed as 4% in test [3] (0.25 weight % A alone); 84% in test [1] (Example 1, 0.025 weight % A alone); 71% in test [1] (Example 1, 0.05 weight % A alone); 48% in test [1] (Example 1, 0.1 weight % A alone); 10% in test [1] (Example 1, 0.2 weight % A alone); 52% in test [1] (Example 2, 0.025 weight % A alone). Further, the microbial growth percentage in test [1] (Example 2, 0.05 weight % A alone) worked out at 31%; in test [1] (Example 2, 0.1 weight % A alone), 18%; in test [1] (Example 3, 0.025 weight % A alone) it was 71%; in test [1] (Example 3, 0.05 weight % A alone) it was 65%; in test [1] (Example 3, 0.1 weight % A alone), 44%; in test [1] (Example 3, 0.2 weight % A alone), 4%. Besides, the microbial growth percentage was 83% in test [1] (Example 4, 0.025 weight % A alone); 71% in test [1] (Example 4, 0.05 weight % A alone); 46% in test [1] (Example 4, 0.1 weight % A alone); 6% in test [1] (Example 4, 0.2 weight % A alone); 56% in test [1] (Example 5, 0.025 weight % A alone); 39% in test [1] (Example 5, 0.05 weight % A alone). Besides, the microbial growth percentage in test [1] (Example 5, 0.1 weight % A alone) turned out to be 17%. Further, the “% MIC of A alone” value in test [2] (growth <= 20%, or even < 25%) stood at 0.5%; in test [3], 0.25%; in test [1] (Example 1, growth <= 20%, or even < 25%), 0.2%; in test [1] (Example 3), 0.2%; in test [1] (Example 4) it was 0.2%; in test [1] (Example 5), 0.1%. The “% MIC A” value in test [1] (Example 2, A alone) was 0.1%.
As to `O=C1C(N(CO)C(=O)NCO)N(CO)C(=O)N1CO` (centres unmarked) [B3, 1-[1,3-bis(hydroxymethyl)-2,5-dioxoimidazolidin-4-yl]-1,3-bis(hydroxymethyl)urea], the “% MIC of B3 alone” value in test [1] (Example 3) amounted to 0.125%. Besides, the microbial growth percentage in test [1] (Example 3, 0.0625 weight % B3 alone) was 55%; in test [1] (Example 3, 0.125 weight % B3 alone), 10%.
